Values joined by “and” are separate entries in the source; they are usually repeats but may differ in a detail not shown here. Equal entries are not always repeated.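 Values below derive from 48-hour exposures of cells grown in 96-well plates, with endpoints linearly interpolated between the two concentrations bracketing the appropriate inhibition level. Abbreviation: GI50, concentration required for 50% inhibition of growth. TGI is the concentration that stops growth completely.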

Among the test systems are NCI-H460 lung; KM12 colon; SNB-19 CNS; SF-539 CNS; M14 melanoma; MOLT-4 leukemia; UACC-257 melanoma; MCF7 breast; HCT-15 colon; PC-3 prostate.
Common to all, as to test: growth of human tumour cells (NCI), 48 h

Regarding `O=P(O)(O)OC1C(OP(=O)(O)O)C(OP(=O)(O)O)C(OP(=O)(O)O)C(OP(=O)(O)O)C1OP(=O)(O)O` (stereo not given), the GI50 with NCI-H460 lung is greater than 2000 µM; with KM12 colon, greater than 1190 µM; in the test on SNB-19 CNS it was greater than 2000 µM; with SF-539 CNS it was greater than 2000 µM; in the test with M14 melanoma, greater than 2000 µM; with MOLT-4 leukemia, greater than 1510 µM. Also, the GI50 with UACC-257 melanoma, with MCF7 breast, in the test on HCT-15 colon and in the test on PC-3 prostate was greater than 2000 µM throughout. For the same molecule, the TGI in the test with NCI-H460 lung, with KM12 colon, with SNB-19 CNS, in the test with SF-539 CNS, in the test with M14 melanoma and with MOLT-4 leukemia was greater than 2000 µM throughout. For the same molecule, the TGI with UACC-257 melanoma, in the test on MCF7 breast, in the test with HCT-15 colon and in the test on PC-3 prostate was greater than 2000 µM each time.

`C=C1C(=O)OC(CCCCCCCC)C1C(=O)O` (stereo not given): the GI50 in the test with NCI-H460 lung was 18.6 µM; in the test on KM12 colon it was 18.3 µM; in the test on SNB-19 CNS it was 17 µM; in the test on SF-539 CNS, 17 µM; in the test on M14 melanoma, 14.6 µM; in the test with MOLT-4 leukemia, 22.2 µM. The GI50 was 11.6 µM with UACC-257 melanoma, 12.6 µM in the test on MCF7 breast, 15.9 µM in the test with HCT-15 colon and 20.2 µM with PC-3 prostate. Moreover, the TGI in the test with NCI-H460 lung is 37.5 µM; in the test on KM12 colon it was 34.4 µM; with SNB-19 CNS, 32.1 µM; in the test with SF-539 CNS, 31.6 µM; in the test with M14 melanoma it was 29.7 µM; in the test on MOLT-4 leukemia, 54 µM. Also, the TGI was determined as 25 µM with UACC-257 melanoma, 26.5 µM with MCF7 breast, 30.8 µM in the test on HCT-15 colon and 40 µM with PC-3 prostate.

Regarding `O=C(Nc1ccc(Cl)c(Cl)c1)Nc1ccc(Cl)c([N+](=O)[O-])c1`, the GI50 is 0.888 µM with NCI-H460 lung; 1.07 µM with KM12 colon; 1.38 µM with SNB-19 CNS; 2.17 µM with SF-539 CNS; 1.46 µM in the test with M14 melanoma; 0.925 µM with MOLT-4 leukemia. The GI50 in the test on UACC-257 melanoma was 2.85 µM; with MCF7 breast, 0.795 µM; in the test on HCT-15 colon it was 0.845 µM; in the test on PC-3 prostate it was 0.921 µM. For the same molecule, the TGI in the test on NCI-H460 lung is 3.03 µM; with KM12 colon, 4.38 µM; in the test with SNB-19 CNS it was 5.29 µM; with SF-539 CNS, 5.51 µM; with M14 melanoma, 5.04 µM; in the test on MOLT-4 leukemia, greater than 25 µM. In addition, the TGI was 7.15 µM in the test with UACC-257 melanoma, 8.32 µM in the test on MCF7 breast, 3.56 µM with HCT-15 colon and 3.59 µM with PC-3 prostate.

Consider `N/C(=N\N=C\c1ccc2c(c1)OCO2)NO`, for which the TGI is greater than 100 µM in the test on NCI-H460 lung; 63.6 µM with KM12 colon; greater than 100 µM in the test with SNB-19 CNS; 56.5 µM with SF-539 CNS; 32.5 µM with M14 melanoma; 77.5 µM with MOLT-4 leukemia. For the same molecule, the TGI in the test with UACC-257 melanoma, with MCF7 breast, in the test with HCT-15 colon and with PC-3 prostate was greater than 100 µM each time.

Take `O=C1CCC/C=C\C[C@H]2C=C(Cl)C(=O)/C2=C/C[C@H](CCCCC(F)(F)F)OC(=O)CCC/C=C\C[C@H]2C=C(Cl)C(=O)/C2=C/C[C@H](CCCCC(F)(F)F)O1`: the GI50 in the test with NCI-H460 lung is 0.257 µM; with KM12 colon, 0.291 µM; with SNB-19 CNS, 0.353 µM; with SF-539 CNS it was 0.257 µM; with M14 melanoma, 0.192 µM; in the test with MOLT-4 leukemia it was 0.24 µM. Moreover, the GI50 is 0.685 µM in the test with UACC-257 melanoma, 0.176 µM in the test on MCF7 breast, 0.297 µM with HCT-15 colon and 0.192 µM in the test on PC-3 prostate. Also, the TGI with NCI-H460 lung worked out at 1.03 µM; in the test with KM12 colon it was 1.38 µM; in the test on SNB-19 CNS, 1.67 µM; in the test on SF-539 CNS, 1.52 µM; in the test with M14 melanoma, 0.614 µM; with MOLT-4 leukemia, 1.6 µM. In addition, the TGI with UACC-257 melanoma amounted to 2.3 µM; in the test with MCF7 breast, 0.973 µM; with HCT-15 colon it was 1.32 µM; in the test on PC-3 prostate, 0.574 µM.

Regarding `CC(=O)OCC1OC(n2cc(F)c(=O)[nH]c2=O)C(OC(C)=O)C1OC(C)=O` (stereo not given), the TGI in the test with NCI-H460 lung is greater than 100 µM; in the test with KM12 colon, greater than 100 µM; with SNB-19 CNS, greater than 100 µM; in the test on SF-539 CNS it was 52.1 µM; in the test on M14 melanoma, greater than 100 µM; in the test on MOLT-4 leukemia it was greater than 77.7 µM. For the same molecule, the TGI with UACC-257 melanoma was greater than 100 µM; with MCF7 breast it was greater than 45.3 µM; with HCT-15 colon, greater than 100 µM; with PC-3 prostate, greater than 100 µM.

In the case of `Cc1c2c(n3c(nc4ccccc43)c1C#N)SCC2`, the TGI in the test on NCI-H460 lung, in the test on KM12 colon, with SNB-19 CNS, with SF-539 CNS, in the test with M14 melanoma and in the test with MOLT-4 leukemia was greater than 10 µM throughout. Moreover, the TGI in the test with UACC-257 melanoma, in the test with MCF7 breast, in the test on HCT-15 colon and in the test on PC-3 prostate was greater than 10 µM in each case.

Take `Cc1cc(O)c2c(c1)C[C@@H](O)C1=C2C(=O)c2c(O)ccc(OC3CC(O)C(OC4CC(OC5CCC(OC6CC(O)C(OC7CC(OC8CCC(O)C(C)O8)C(O)C(C)O7)C(C)O6)C(C)O5)C(O)C(C)O4)C(C)O3)c2C1=O` (stereo not given in full): the TGI is 0.485 µM with NCI-H460 lung; 0.335 µM and 2.88 µM and 2.67 µM with SNB-19 CNS; 0.216 µM and 0.343 µM in the test with MOLT-4 leukemia; 0.599 µM and 1.69 µM and 2.32 µM with MCF7 breast; 0.148 µM and 0.488 µM with HCT-15 colon; 0.56 µM and 1.49 µM and 3.5 µM in the test on PC-3 prostate. Also, the GI50 is 1.78 µM and 1.11 µM in the test with KM12 colon; 1.41 µM and 1.24 µM in the test on SNB-19 CNS; 0.391 µM and 1.31 µM with SF-539 CNS; 0.822 µM and 1.28 µM with M14 melanoma; 0.0541 µM in the test with MOLT-4 leukemia; 1.38 µM and 0.844 µM in the test with UACC-257 melanoma. Besides, the GI50 with MCF7 breast was 0.394 µM and 0.921 µM; in the test with HCT-15 colon it was 0.231 µM; in the test on PC-3 prostate, 0.4 µM and 0.849 µM.

On to `CCOC(=O)c1cc2c(n1Cc1cccc(OC)c1)-c1oncc1CC2`, for which the GI50 with NCI-H460 lung was 0.511 µM; in the test with KM12 colon, 0.55 µM; with SNB-19 CNS it was 4.72 µM; with SF-539 CNS it was 1.16 µM; in the test with M14 melanoma, 0.432 µM; with MOLT-4 leukemia, 1.16 µM. For the same molecule, the GI50 with UACC-257 melanoma was 39.6 µM; with MCF7 breast it was 0.487 µM; in the test with HCT-15 colon, 0.521 µM; in the test on PC-3 prostate it was 5.19 µM. The TGI is greater than 100 µM with NCI-H460 lung; greater than 100 µM with KM12 colon; greater than 100 µM in the test with SNB-19 CNS; 7.35 µM with SF-539 CNS; 35.3 µM in the test on M14 melanoma; greater than 100 µM with MOLT-4 leukemia. Further, the TGI in the test on UACC-257 melanoma, with MCF7 breast, with HCT-15 colon and with PC-3 prostate was greater than 100 µM in each case.

The values are drawn from PubChem BioAssay (NCI).
